Data set [1] deals with erythrocytes. Description: In vitro competition studies with zonisamide and topiramate in whole blood. To be noted: not influenced by the addition of sultiame; data not shown. In kind it is in vitro ADME, human. The procedure:
In addition, competition studies were performed with two other antiepileptic agents known for their affinity for CA (zonisamide and topiramate), added at equimolar concentration to 20 mg/L of sultiame. Similar ranges of inhibition constants for CA II were reported in the literature for these three substances.13 Samples (1 mL) were drawn before and at 2, 4, 6, 8, 10, 15, 20, 30, 45, 60, and 120 min after addition of the competitor. Sultiame, zonisamide, and topiramate concentrations were then analyzed. All samples were centrifuged at 18 620 g for 1 minutes at 4°C. Plasma, erythrocyte, and urine fractions were stored separately at − 80°C prior to analysis for a maximum of 9 months. For analysis, plasma and hemolyzed erythrocytes samples were subjected to protein precipitation with MeOH containing the internal‐standard sultiame D4 and quantified with the previously described HPLC‐MS/MS method, using matrix‐matched calibration and quality controls. The sultiame concentrations determined in erythrocytes were corrected for the 10% interstitial plasma remnant in the erythrocyte fraction after centrifugation.14

On the set-up of data set [2]: method as in earlier work. To be noted: main metabolite identified in urines ref 8; cited from earlier work.

Regarding `CC1(C)O[C@@H]2[C@@H](CO[C@@]3(COS(N)(=O)=O)OC(C)(C)O[C@@H]23)O1` [topiramate], in data set [1], the erythrocyte/plasma ratio was approximately 1.
Turning to hydroxy‐sultiame, the activity of metabolite entry in data set [2] is “inactive”.

The record behind these values is article PMC6986439, “Sultiame pharmacokinetic profile in plasma and erythrocytes after single oral doses: A pilot study in healthy volunteers” (Pharmacology Research & Perspectives, 2020).
